Test results: ChEMBL document CHEMBL4699486, “Fragment-based lead discovery of a novel class of small molecule antagonists of neuropeptide B/W receptor subtype 1 (GPR7)” (Bioorg Med Chem Lett, 2020)
pIC50: −log10 of the molar value.

target: T1, Neuropeptides B/W receptor type 1 (Homo sapiens, UniProt P48145); assay: Antagonist activity at human NPBWR1 assessed as inhibition of agonist-induced cAMP accumulation by cAMP assay; format: functional
T1 sequence (P48145 whole entry): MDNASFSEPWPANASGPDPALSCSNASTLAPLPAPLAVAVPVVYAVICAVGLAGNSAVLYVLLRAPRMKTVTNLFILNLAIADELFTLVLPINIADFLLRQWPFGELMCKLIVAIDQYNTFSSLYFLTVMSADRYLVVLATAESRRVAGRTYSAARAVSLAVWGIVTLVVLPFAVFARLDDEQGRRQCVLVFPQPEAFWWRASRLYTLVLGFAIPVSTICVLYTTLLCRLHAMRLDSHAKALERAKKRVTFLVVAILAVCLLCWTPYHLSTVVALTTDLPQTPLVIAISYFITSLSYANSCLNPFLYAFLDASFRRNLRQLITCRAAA

Row | SMILES | pIC50
1 | O=[N+]([O-])c1ccc2[nH]c(-c3ccc(N4CCCC4)cc3)nc2c1 | 5.74
2 | FC(F)(F)c1ccc2[nH]c(-c3ccccc3)nc2c1 | 5.92
3 | Cc1ccc(-c2nc3cc([N+](=O)[O-])ccc3[nH]2)c(C)c1 | 5.81
4 | O=[N+]([O-])c1ccc2nc(-c3ccc(Cl)c(Cl)c3)[nH]c2c1 | < 4.50
5 | O=[N+]([O-])c1ccc2nc(-c3ccc(Cl)cc3)[nH]c2c1 | 5.57
6 | O=[N+]([O-])c1ccc2[nH]c(-c3ccc(Cl)c(Br)c3)nc2c1 | < 4.50
7 | Cc1ccc(-c2nc3cc([N+](=O)[O-])ccc3[nH]2)cc1C | 5.86
8 | Cn1cc(-c2ccc(-c3nc4cc(C(F)(F)F)ccc4[nH]3)cc2)cn1 | 5.83
9 | Nc1ccc(-c2nc3cc([N+](=O)[O-])ccc3[nH]2)cc1 | 5.07
10 | Cc1cc(Cl)ccc1-c1nc2cc([N+](=O)[O-])ccc2[nH]1 | 5.60
11 | O=[N+]([O-])c1ccc2[nH]c(-c3ccccc3N3CCCC3)nc2c1 | 5.17
12 | FC(F)(F)c1ccc2[nH]c(-c3ccc(-c4c[nH]nc4C(F)(F)F)cc3)nc2c1 | 5.92
13 | O=[N+]([O-])c1ccc2[nH]c(-c3ccc(-c4ccccc4)cc3)nc2c1 | 5.31
14 | FC(F)(F)c1ccc2[nH]c(-c3ccc(-c4nnc[nH]4)cc3)nc2c1 | 5.51
15 | NS(=O)(=O)c1ccc(-c2nc3cc([N+](=O)[O-])ccc3[nH]2)cc1 | < 4.50
16 | CC(=O)c1ccccc1-c1nc2cc([N+](=O)[O-])ccc2[nH]1 | < 4.50
17 | O=[N+]([O-])c1ccc2[nH]c(-c3ccc(C(F)(F)F)cc3)nc2c1 | < 4.50

Row | SMILES | pIC50
18 | Cc1ccc(-c2nc3cc([N+](=O)[O-])ccc3[nH]2)cc1 | 5.82
19 | O=[N+]([O-])c1ccc2[nH]c(-c3ccc(Cl)cc3Br)nc2c1 | 5.76
20 | O=[N+]([O-])c1ccc2nc(-c3ccccc3Cl)[nH]c2c1 | 4.97
21 | CC(=O)c1cccc(-c2nc3cc([N+](=O)[O-])ccc3[nH]2)c1 | < 4.50
22 | Cc1cc(-c2nc3cc([N+](=O)[O-])ccc3[nH]2)ccc1Cl | 5.64
23 | O=[N+]([O-])c1ccc2[nH]c(-c3c(Cl)cc(Cl)cc3I)nc2c1 | 6.69
24 | FC(F)(F)c1ccc2[nH]c(-c3ccc(-c4ccoc4)cc3)nc2c1 | 5.92
25 | O=[N+]([O-])c1ccc2nc(-c3ccc(Cl)cc3Cl)[nH]c2c1 | 5.54
26 | COc1ccc(-c2nc3cc([N+](=O)[O-])ccc3[nH]2)cc1 | 5.22
27 | CC(=O)c1ccc(-c2nc3cc([N+](=O)[O-])ccc3[nH]2)cc1 | 5.03
28 | CC(C)(C)c1ccc(-c2nc3cc([N+](=O)[O-])ccc3[nH]2)cc1 | 5.50
29 | O=[N+]([O-])c1ccc2[nH]c(-c3cccc(Cl)c3)nc2c1 | 5.00
30 | NCc1ccc(-c2ccc(-c3nc4cc(C(F)(F)F)ccc4[nH]3)cc2)cc1 | 6.14
31 | O=[N+]([O-])c1ccc2[nH]c(-c3cccc(N4CCCC4)c3)nc2c1 | 5.22
32 | CCc1ccc(-c2nc3cc([N+](=O)[O-])ccc3[nH]2)cc1 | 5.99
33 | O=[N+]([O-])c1ccc2[nH]c(-c3ccccc3)nc2c1 | 5.00
